Measured values taken from patent US20240115557A1, “INHIBITORS OF RNA-GUIDED NUCLEASES AND USES THEREOF” (The Brigham and Women's Hospital, Inc., priority 2022, published 2024).

Target: SpCas9 (Streptococcus pyogenes serotype M1, UniProt Q99ZW2)
Assay: eGFP disruption assay, SpCas9, U2OS.eGFP.PEST cells
Format: cell-based
Conditions: for Normalized Z rep1 / Z score Rep1: replicate 1; for SpCas9 eGFP disruption Rep1: replicate 1, raw readout; for Normalized Z rep2 / Z socre Rep2: replicate 2; for SpCas9 eGFP disruption Rep2: replicate 2, raw readout
Summary of the method: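 Rescue of eGFP signal lost through Cas9-induced NHEJ indels serves as the inhibition read-out, after 24 h compound exposure (20 μM for hits, variable for dose-response). Editing was delivered by nucleofection into U2OS.eGFP.PEST cells as SpCas9/gRNA plasmids (300/30 ng) or RNP (10/12 pmol). Toxic and autofluorescent compounds were excluded.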

[1] = Cas9 = lower control, Ctrl = upper control
[2] = normalized, lower control about 0, upper control about 1

Sequence of SpCas9 (Q99ZW2 whole entry): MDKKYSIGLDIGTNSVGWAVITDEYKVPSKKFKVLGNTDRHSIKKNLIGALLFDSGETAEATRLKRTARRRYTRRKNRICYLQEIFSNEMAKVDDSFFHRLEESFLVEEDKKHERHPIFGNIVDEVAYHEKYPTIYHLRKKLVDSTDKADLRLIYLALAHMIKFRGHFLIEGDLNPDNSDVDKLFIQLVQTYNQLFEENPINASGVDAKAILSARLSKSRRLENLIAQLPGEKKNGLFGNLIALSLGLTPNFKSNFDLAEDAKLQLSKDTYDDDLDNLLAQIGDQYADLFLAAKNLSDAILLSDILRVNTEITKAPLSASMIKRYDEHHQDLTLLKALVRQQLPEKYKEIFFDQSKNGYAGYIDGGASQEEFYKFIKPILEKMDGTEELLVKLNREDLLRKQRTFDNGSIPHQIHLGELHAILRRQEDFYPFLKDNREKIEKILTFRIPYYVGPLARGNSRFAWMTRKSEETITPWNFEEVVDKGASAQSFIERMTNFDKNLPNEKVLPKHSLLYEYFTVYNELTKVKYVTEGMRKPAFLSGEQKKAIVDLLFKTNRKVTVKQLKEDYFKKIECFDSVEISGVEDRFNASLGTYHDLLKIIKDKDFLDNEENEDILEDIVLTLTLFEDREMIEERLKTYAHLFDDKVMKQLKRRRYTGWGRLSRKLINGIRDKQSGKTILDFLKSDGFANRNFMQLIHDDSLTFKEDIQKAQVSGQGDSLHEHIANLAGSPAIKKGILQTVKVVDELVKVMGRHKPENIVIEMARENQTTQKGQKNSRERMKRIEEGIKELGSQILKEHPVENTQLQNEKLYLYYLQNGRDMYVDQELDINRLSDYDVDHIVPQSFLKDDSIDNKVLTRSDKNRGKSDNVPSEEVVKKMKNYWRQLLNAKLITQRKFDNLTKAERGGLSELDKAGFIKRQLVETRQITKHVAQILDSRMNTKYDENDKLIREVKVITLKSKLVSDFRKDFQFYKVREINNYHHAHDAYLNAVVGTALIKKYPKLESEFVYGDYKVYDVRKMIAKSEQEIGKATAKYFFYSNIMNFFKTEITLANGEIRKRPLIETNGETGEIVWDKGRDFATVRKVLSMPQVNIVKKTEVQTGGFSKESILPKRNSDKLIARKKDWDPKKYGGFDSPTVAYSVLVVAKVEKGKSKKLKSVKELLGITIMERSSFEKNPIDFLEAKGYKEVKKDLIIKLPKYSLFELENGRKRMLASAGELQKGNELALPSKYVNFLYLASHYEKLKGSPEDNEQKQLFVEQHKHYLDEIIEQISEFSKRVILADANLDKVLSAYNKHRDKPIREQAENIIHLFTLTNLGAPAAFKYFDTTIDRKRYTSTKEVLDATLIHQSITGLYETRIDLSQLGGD

Row | SMILES | EC50 (EC50 in eGFP disruption assay, U2OS.eGFP.PEST, SpCas9 plasmid and sgRNA plasmid, 0.3 uM to 20 uM, 24 h (FIG. 44A/C)) [µM] | EC50 (EC50 in the eGFP disruption assay, from three independent experiments) [µM] | Potency relative to BRD0539 (more potent than BRD0539) [fold] | Normalized Z rep1 | Z score Rep1 | SpCas9 eGFP disruption Rep1 | Normalized Z rep2 | Z socre Rep2 | SpCas9 eGFP disruption Rep2 | SpCas9 eGFP disruption Rep1 [1] | Normalized Z rep1 [2] | SpCas9 eGFP disruption Rep2 [1] | Normalized Z rep2 [2]
1 | O=C(CCS(=O)(=O)c1ccc(Cl)cc1)Nc1nc(-c2ccncc2)cs1 [BRD7586] | 5.55 | 6.2 ± 1.2 | ~2 |  |  |  |  |  |  |  |  |  | 
2 | c1ccc(Cc2nn3c(-c4cccnc4)nnc3s2)cc1 [Compound D727-0066] |  |  |  | −0.11 | −0.78 | 64.43 | −0.15 | −1.42 | 58.807 |  |  |  | 
3 | Cc1nc2ccccc2n1Cc1nnc2n1N=C(N)CS2 [Compound D727-0339] |  |  |  | −0.25 | −1.83 | 60.982 | −0.15 | −1.41 | 58.84 |  |  |  | 
4 | Cc1ccccc1OCc1nn2c(C(C)C)nnc2s1 [Compound D727-0350] |  |  |  | −0.47 | −3.41 | 55.746 | −0.04 | −0.36 | 61.985 |  |  |  | 
5 | Cc1ccccc1OCc1nn2c(C(C)(C)C)nnc2s1 [Compound D727-0351] |  |  |  |  | 0.29 |  |  | 1.32 |  | 67.967 | 0.04 | 67.06 | 0.14
6 | Brc1ccc(OCc2nn3c(-c4ccccn4)nnc3s2)cc1 [Compound D727-0522] |  |  |  | −0.12 | −0.85 | 64.203 | 0.08 | 0.79 | 65.458 |  |  |  | 
7 | Fc1ccc(OCc2nn3c(-c4ccccn4)nnc3s2)cc1 [Compound D727-0525] |  |  |  | −0.49 | −3.56 | 55.263 | −0.39 | −3.59 | 52.257 |  |  |  | 
8 | NC(=O)c1c(NC(=O)COCc2cc(-c3ccc4c(c3)OCO4)on2)sc2c1CCCC2 [Compound E613-0091] |  |  |  | −0.19 | −1.37 | 62.484 | −0.32 | −2.94 | 54.219 |  |  |  | 
9 | NS(=O)(=O)c1ccc(CCNC(=O)C2=Cc3sc4c(c3CS2)CCCC4)cc1 [Compound E722-2588] |  |  |  | −0.16 | −1.14 | 63.246 | 0.13 | 1.22 | 66.773 |  |  |  | 
10 | NC(=O)c1sc(=S)n2c1[nH]c(=O)c1ccc(Cl)cc12 [Compound F083-0067] |  |  |  | −0.09 | −0.66 | 64.842 | −0.23 | −2.14 | 56.626 |  |  |  | 
11 | CCCN1CCN(c2ccc(C(=O)O)cc2NC(=O)c2ccccc2Cl)CC1 [Compound F086-0004] |  |  |  | −0.17 | −1.20 | 63.051 | −0.29 | −2.70 | 54.937 |  |  |  | 
12 | CC(C)NC(=O)CN1CCN(c2ccc(C(=O)O)cc2NC(=O)c2ccccc2Cl)CC1 [Compound F086-0028] |  |  |  | −0.55 | −3.98 | 53.848 | −0.21 | −1.95 | 57.208 |  |  |  | 
13 | COCCCNC(=O)CN1CCN(c2ccc(C(=O)O)cc2NC(=O)c2ccccc2Cl)CC1 [Compound F086-0033] |  |  |  | −0.26 | −1.88 | 60.787 | −0.24 | −2.23 | 56.359 |  |  |  | 
14 | O=C(O)c1ccc(N2CCN(c3ccccn3)CC2)c(NC(=O)c2ccc(Br)cc2)c1 [Compound F086-0619] |  |  |  | −0.11 | −0.82 | 64.289 | −0.20 | −1.83 | 57.556 |  |  |  | 
15 | Nc1c(C(=O)N2CCCC2)sc(=S)n1Cc1ccccc1 [Compound F128-0041] |  |  |  | −0.05 | −0.34 | 65.885 | −0.15 | −1.37 | 58.95 |  |  |  | 
16 | Nc1c(C(=O)N2CCCCC2)sc(=S)n1Cc1ccccc1 [Compound F128-0042] |  |  |  | −0.22 | −1.57 | 61.817 | −0.36 | −3.35 | 52.985 |  |  |  | 
17 | Nc1c(C(=O)NCC2CCCO2)sc(=S)n1-c1ccc(Cl)cc1 (stereo not drawn) [Compound F128-0076] |  |  |  | −0.08 | −0.57 | 65.12 | −0.12 | −1.11 | 59.748 |  |  |  | 
18 | CS(=O)(=O)Nc1cnc(N2CCC(C(N)=O)(N3CCCCC3)CC2)c(C(=O)O)c1 [Compound F293-0183] |  |  |  | −0.19 | −1.40 | 62.398 | −0.33 | −3.08 | 53.8 |  |  |  | 
19 | O=C(O)c1cc(NS(=O)(=O)c2cc(F)ccc2F)cnc1N1CCC(N2CCCCC2)CC1 [Compound F293-0616] |  |  |  | −0.36 | −2.62 | 58.357 | −0.03 | −0.30 | 62.171 |  |  |  | 
20 | CS(=O)(=O)Nc1cnc(N2CCC(CCN3CCOCC3)CC2)c(C(=O)O)c1 [Compound F293-0898] |  |  |  | −0.44 | −3.21 | 56.403 | −0.11 | −1.00 | 60.078 |  |  |  | 
21 | CN(C)S(=O)(=O)Nc1cnc(N2CCC(CCN3CCCCC3)CC2)c(C(=O)O)c1 [Compound F293-0962] |  |  |  | −0.18 | −1.30 | 62.732 | −0.33 | −3.10 | 53.726 |  |  |  | 
22 | CCN(Cc1ccccc1)c1ccc(NS(=O)(=O)c2ccc(OC)cc2)cc1C(=O)O [Compound F294-0003] |  |  |  | −0.48 | −3.46 | 55.595 | −0.10 | −0.96 | 60.198 |  |  |  | 
23 | CN(C)S(=O)(=O)Nc1ccc(N2CCC(C(N)=O)(N3CCCCC3)CC2)c(C(=O)O)c1 [Compound F294-0183] |  |  |  | −0.33 | −2.37 | 59.182 | −0.30 | −2.83 | 54.549 |  |  |  | 
24 | CN(C)S(=O)(=O)Nc1ccc(N2CCC(CCN3CCOCC3)CC2)c(C(=O)O)c1 [Compound F294-0900] |  |  |  | −0.19 | −1.40 | 62.393 | −0.24 | −2.23 | 56.357 |  |  |  | 
25 | CN(C)S(=O)(=O)Nc1ccc(N2CCCC(CN3CCCC3)C2)c(C(=O)O)c1 (stereo not drawn) [Compound F294-0983] |  |  |  | −0.40 | −2.90 | 57.443 | −0.35 | −3.23 | 53.339 |  |  |  | 
